Data reported in article PMC6017545, “Design, Synthesis, and Biological Evaluation of Novel 1,3,4-Thiadiazole Derivatives as Potential Antitumor Agents against Chronic Myelogenous Leukemia: Striking Effect of Nitrothiazole Moiety” (Molecules : A Journal of Synthetic Chemistry and Natural …, 2017).

Columns and labels:
Jurkat cell line = experiment: MTT cytotoxicity assay, Jurkat cells; format: cell-based; conditions: Homo sapiens, 48 h of incubation, mean ± SD, three independent experiments
Experimental: (§1) HeLa human cervical carcinoma cells were incubated in Dulbecco’s modified Eagle’s medium (DMEM) (Wako Pure Chemical Industries, Osaka, Japan) supplemented with 10% fetal bovine serum (FBS) (Equitech-Bio, Kerrville, TX, USA). […] Growing cells were plated at 2 × 10^4 cells/mL into 24-well microtiter tissue culture plates (Iwaki brand Asahi Glass Co., Chiba, Japan) and incubated for 48 h before the addition of the drugs (the optimal cell number for cytotoxicity assays was determined in preliminary experiments). […] The concentration of DMSO in the final culture medium was 1%.
(§2) The level of cellular reduction of 3-(4,5-dimethylthiazol-2-yl)-2,5-diphenyltetrazolium bromide (MTT) (Dojindo Molecular Technologies, Kumamoto, Japan) was quantified as previously described in the literature with small modifications [46]. The tested compounds were incubated with cells in various concentrations for 48 h. […] The solution was removed, and the formazan crystals were solubilized by an addition of 100 μL DMSO. The absorbance of the converted dye in the living cells was measured at a wavelength of 550 nm using a microplate spectrophotometer Infinitive M1000 (Tecan, Groding, Austria). Cell viability was calculated as a percentage of the viable control cells.

[1] = system: HeLa human cervical carcinoma cell line; experiment: MTT cytotoxicity assay, HeLa cells; format: cell-based; conditions: for activity against the HeLa cell line (in words): 48 h; for IC50: Homo sapiens, HeLa, 48 h of incubation, mean ± SD, three independent experiments
Experimental: as §1, §2

MT-2 cell line = experiment: MTT cytotoxicity assay, MT-2 cells; format: cell-based; conditions: Homo sapiens, MT2, 48 h of incubation, mean ± SD, three independent experiments
Experimental: as §1, §2

[2] = system: K562 chronic myelogenous leukemia cell line; experiment: MTT cytotoxicity assay, K562 cells; format: cell-based, human; conditions: for IC50: Homo sapiens, K562, 48 h of incubation, mean ± SD, three independent experiments
Experimental: as §1, §2

LYN B = LYN B (Homo sapiens, UniProt P07948); experiment: Kinase inhibition assay (TK-2 profiling, ADP-Glo), LYN B
Chain of LYN B (P07948 1-491 isoform P07948-2): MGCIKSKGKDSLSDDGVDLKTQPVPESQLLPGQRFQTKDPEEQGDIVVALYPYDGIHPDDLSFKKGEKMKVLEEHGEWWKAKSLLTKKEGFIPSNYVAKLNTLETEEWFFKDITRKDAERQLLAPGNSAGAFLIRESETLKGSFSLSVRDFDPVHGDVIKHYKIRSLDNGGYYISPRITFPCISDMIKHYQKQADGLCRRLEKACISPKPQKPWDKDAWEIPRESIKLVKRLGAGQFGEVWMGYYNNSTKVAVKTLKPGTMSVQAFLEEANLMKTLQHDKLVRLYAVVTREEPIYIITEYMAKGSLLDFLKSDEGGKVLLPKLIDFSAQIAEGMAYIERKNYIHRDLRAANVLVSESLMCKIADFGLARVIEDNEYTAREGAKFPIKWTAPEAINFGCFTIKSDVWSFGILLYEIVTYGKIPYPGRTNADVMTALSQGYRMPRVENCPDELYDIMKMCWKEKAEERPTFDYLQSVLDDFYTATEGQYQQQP
Experimental: (§3) Kinase selectivity profiling system (TK-2) assays were performed according to the manufacturer’s instructions (Promega Corporation, Madison, WI, USA). Multipoint dose-response experiments were performed using eight kinases, namely: ABL1, BRK, BTK, CSK, FYN A, LCK, LYN B, and SRC. […] After 1 h of incubation at room temperature, kinase activity was quantified using the ADP-Glo Kinase Assay (Promega Corporation). Kinase inhibition was quantified using an Infinitive M1000 luminescence microplate spectrophotometer (Tecan, Groding, Austria).

ABL1 = biological target: T1, ABL1 (Homo sapiens, UniProt P00519); experiment: Kinase inhibition assay (TK-2 profiling, ADP-Glo), ABL1; format: biochemical; conditions: 1 h at room temperature
T1 construct: purchased Promega Corporation
T1 sequence (P00519 whole entry): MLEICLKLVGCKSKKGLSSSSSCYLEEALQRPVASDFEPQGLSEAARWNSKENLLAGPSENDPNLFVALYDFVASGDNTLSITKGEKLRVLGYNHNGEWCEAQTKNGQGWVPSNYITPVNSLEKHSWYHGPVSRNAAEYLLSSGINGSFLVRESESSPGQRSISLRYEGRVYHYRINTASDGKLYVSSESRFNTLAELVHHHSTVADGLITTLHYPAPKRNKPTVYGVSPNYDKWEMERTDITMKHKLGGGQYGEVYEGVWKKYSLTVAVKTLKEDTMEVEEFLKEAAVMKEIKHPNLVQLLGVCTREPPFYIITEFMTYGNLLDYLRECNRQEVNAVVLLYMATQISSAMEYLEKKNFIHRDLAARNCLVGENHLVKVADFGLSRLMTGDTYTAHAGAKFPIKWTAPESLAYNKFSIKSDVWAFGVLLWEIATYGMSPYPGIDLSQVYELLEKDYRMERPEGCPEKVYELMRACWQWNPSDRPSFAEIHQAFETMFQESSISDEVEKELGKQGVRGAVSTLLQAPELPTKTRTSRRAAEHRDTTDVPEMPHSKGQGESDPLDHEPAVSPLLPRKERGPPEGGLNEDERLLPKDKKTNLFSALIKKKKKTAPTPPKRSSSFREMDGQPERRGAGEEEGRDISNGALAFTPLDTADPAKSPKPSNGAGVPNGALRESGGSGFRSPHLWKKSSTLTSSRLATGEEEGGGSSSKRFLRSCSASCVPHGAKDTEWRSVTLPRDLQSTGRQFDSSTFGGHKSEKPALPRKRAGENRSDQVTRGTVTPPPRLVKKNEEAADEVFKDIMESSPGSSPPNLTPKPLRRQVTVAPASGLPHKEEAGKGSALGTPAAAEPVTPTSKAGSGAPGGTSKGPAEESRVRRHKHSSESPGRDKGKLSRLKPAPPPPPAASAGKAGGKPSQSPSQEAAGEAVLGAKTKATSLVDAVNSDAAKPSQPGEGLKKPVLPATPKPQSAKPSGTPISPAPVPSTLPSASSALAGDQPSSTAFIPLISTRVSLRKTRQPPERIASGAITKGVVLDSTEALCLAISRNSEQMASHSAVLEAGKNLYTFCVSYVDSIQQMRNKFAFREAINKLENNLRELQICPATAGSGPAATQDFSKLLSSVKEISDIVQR
Experimental: as §3

BRK = BRK (Homo sapiens, UniProt Q13882); experiment: Kinase inhibition assay (TK-2 profiling, ADP-Glo), BRK
Chain of BRK (Q13882 whole entry): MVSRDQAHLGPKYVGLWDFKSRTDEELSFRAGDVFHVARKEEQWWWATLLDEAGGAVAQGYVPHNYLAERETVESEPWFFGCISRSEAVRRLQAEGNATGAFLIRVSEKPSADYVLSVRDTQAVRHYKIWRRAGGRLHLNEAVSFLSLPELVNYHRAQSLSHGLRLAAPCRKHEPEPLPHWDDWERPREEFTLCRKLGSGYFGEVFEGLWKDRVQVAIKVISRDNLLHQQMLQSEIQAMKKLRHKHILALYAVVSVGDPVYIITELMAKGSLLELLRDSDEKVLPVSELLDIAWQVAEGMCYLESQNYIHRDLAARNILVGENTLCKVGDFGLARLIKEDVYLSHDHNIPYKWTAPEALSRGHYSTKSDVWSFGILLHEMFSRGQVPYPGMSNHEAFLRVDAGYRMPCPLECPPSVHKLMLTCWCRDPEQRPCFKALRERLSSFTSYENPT
Experimental: as §3

FYN A = FYN A (Homo sapiens, UniProt P06241); experiment: Kinase inhibition assay (TK-2 profiling, ADP-Glo), FYN A
Chain of FYN A (P06241 whole entry): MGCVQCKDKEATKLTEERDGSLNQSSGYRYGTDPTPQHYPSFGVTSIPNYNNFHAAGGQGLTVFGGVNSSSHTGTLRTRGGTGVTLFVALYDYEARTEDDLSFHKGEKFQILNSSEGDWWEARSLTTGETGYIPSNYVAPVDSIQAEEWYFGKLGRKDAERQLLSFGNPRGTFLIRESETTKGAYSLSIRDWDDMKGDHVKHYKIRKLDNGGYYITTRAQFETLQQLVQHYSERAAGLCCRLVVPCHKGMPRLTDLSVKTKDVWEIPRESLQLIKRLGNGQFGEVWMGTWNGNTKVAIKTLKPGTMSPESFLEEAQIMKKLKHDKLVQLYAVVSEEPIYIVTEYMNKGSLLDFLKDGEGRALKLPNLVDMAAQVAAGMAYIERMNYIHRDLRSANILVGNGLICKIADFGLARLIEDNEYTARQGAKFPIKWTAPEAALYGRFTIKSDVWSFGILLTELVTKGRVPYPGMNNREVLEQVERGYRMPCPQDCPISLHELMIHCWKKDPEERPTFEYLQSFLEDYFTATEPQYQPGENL
Experimental: as §3

BTK = BTK (Homo sapiens, UniProt Q06187); experiment: Kinase inhibition assay (TK-2 profiling, ADP-Glo), BTK
Chain of BTK (Q06187 whole entry): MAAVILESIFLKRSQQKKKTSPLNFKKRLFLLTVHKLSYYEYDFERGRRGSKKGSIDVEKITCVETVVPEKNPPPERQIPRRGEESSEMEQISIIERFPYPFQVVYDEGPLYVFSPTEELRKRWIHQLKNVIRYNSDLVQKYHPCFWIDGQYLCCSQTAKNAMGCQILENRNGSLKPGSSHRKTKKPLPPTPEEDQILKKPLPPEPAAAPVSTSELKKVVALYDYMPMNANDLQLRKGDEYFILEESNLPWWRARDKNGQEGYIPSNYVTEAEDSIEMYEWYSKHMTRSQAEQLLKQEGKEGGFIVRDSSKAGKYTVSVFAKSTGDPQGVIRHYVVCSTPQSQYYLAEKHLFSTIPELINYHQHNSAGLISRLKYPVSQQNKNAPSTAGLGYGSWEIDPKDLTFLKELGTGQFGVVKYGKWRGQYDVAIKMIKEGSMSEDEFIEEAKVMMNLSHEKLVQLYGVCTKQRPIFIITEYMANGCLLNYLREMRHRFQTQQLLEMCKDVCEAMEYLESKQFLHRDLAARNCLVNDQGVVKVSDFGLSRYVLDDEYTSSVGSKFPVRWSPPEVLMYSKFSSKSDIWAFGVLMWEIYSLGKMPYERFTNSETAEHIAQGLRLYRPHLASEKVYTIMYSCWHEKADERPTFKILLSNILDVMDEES
Experimental: as §3

HeLa cells = experiment: Apoptotic/necrotic/healthy cells detection assay (annexin V/ethidium homodimer III staining); format: cell-based, human; conditions: IC50 concentration; for apoptotic activity: 3 h, approximately 100 stained cells counted; for apoptotic and necrotic effects: 24 h and 48 h, data not shown
Experimental: Then, detection of apoptotic/necrotic/healthy cells was performed according to the manufacturer’s instructions (PromoKine, Heidelberg, Germany). After the cells were washed twice with 1× binding buffer, a staining solution containing 50 μL of 1 × binding buffer, 2 μL of FITC-Annexin V solution, 2 μL of ethidium homodimer III solution, and 2 μL of Hoechst 33,342 solution was added and the cells were incubated for 15 min at room temperature (RT), protected from light. The cells were washed with 1 × binding buffer, analyzed by the all-in-one fluorescence microscope Biorevo Fluorescence BZ-9000 (Keyence, Osaka, Japan), and counted as described previously in [47].

CSK = CSK (Homo sapiens, UniProt P41240); experiment: Kinase inhibition assay (TK-2 profiling, ADP-Glo), CSK
Experimental: as §3

[3] = system: peripheral blood mononuclear cells (PBMC); experiment: MTT cytotoxicity assay, PBMC; format: cell-based
Experimental: as §1, §2

SRC = biological target: T2, SRC (Homo sapiens, UniProt P12931); experiment: Kinase inhibition assay (TK-2 profiling, ADP-Glo), SRC; format: biochemical
T2 construct: purchased Promega Corporation
T2 sequence (P12931 whole entry): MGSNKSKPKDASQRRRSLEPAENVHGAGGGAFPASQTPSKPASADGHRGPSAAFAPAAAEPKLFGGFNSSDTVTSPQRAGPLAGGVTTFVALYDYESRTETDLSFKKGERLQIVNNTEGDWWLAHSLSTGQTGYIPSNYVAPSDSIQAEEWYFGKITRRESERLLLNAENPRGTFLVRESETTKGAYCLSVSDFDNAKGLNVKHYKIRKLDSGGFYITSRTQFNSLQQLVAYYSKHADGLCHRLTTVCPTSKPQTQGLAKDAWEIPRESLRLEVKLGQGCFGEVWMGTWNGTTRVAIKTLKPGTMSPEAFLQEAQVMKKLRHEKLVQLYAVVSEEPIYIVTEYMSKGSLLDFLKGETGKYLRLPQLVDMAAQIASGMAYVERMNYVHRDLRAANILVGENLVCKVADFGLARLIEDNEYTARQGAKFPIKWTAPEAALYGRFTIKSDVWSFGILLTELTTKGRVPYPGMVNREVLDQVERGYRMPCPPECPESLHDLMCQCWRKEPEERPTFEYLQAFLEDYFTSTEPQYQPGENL
Experimental: as §3

LCK = biological target: T3, LCK (Homo sapiens, UniProt P06239); experiment: Kinase inhibition assay (TK-2 profiling, ADP-Glo), LCK; format: biochemical
T3 construct: purchased Promega Corporation
T3 sequence (P06239 whole entry): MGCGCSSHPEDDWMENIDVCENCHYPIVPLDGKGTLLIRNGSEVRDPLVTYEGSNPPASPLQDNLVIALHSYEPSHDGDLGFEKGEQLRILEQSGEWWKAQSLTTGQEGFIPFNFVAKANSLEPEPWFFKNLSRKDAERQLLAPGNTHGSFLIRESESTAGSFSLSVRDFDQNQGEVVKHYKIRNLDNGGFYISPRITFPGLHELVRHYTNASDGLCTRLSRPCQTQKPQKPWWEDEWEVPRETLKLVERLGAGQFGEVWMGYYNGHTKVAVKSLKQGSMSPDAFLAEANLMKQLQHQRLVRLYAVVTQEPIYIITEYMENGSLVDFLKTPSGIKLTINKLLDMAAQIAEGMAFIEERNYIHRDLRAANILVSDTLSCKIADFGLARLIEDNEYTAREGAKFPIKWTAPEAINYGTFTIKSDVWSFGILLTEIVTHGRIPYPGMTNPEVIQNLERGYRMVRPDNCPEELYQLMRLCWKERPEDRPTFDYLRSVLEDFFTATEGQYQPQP
Experimental: as §3

[4] = ADP-Glo, 1 h at room temperature

Row | melting point [°C] | Structure (SMILES) | IC50 (Jurkat cell line) [µM] | IC50 [1] [µM] | IC50 (MT-2 cell line) [µM] | IC50 [2] [µM] | further results
1 | 271.4 to 272.5 | O=C(CSc1nnc(Nc2ccc(C(F)(F)F)cc2)s1)Nc1nccs1 [Compound 1, N-(Thiazol-2-yl)-2-((5-((4-(trifluoromethyl)phenyl)amino)-1,3,4-thiadiazol-2-yl)thio)acetamide] | > 300 | 135 ± 12 | > 300 | > 300 | activity against the HeLa cell line (in words) [1]: no significant activity; activity against the K562 cell line (in words) ([2]; 48 h): inactive
2 | 275 to 276.5 | O=C(CSc1nnc(Nc2ccc(C(F)(F)F)cc2)s1)Nc1ncc([N+](=O)[O-])s1 [Compound 2, N-(5-Nitrothiazol-2-yl)-2-((5-((4-(trifluoromethyl)phenyl)amino)-1,3,4-thiadiazol-2-yl)thio)acetamide] | 17.9 ± 4 | 12.4 ± 2 | 167 ± 8 | 33 ± 4 | IC50 (LYN B): > 100 µM; inhibition of LYN B (in words) (LYN B): inactive; IC50 (ABL1): 7.4 µM; IC50 (BRK): > 100 µM; inhibition of BRK (in words) (BRK): inactive; IC50 (FYN A): 70.8 µM; inhibition of FYN A (in words) (FYN A; IC50 in the micromolar range): significantly inhibited; IC50 (BTK): 30.2 µM; inhibition of BTK (in words) (BTK; IC50 in the micromolar range): significantly inhibited; apoptotic activity (HeLa cells): 96%; apoptotic and necrotic effects (HeLa cells): induced late apoptosis or necrosis; IC50 (CSK): 18.4 µM; inhibition of CSK (in words) (CSK; IC50 in the micromolar range): significantly inhibited; IC50 ([3]; PBMC, MTT, 48 h of incubation, mean ± SD, three independent experiments): 141 ± 16 µM; times lower cytotoxicity on PBMC than imatinib ([3]; ratio of PBMC IC50 values, 48 h): ~ 5 times; inhibition of SRC (in words) (SRC): inactive; IC50 (SRC; [4]): > 100 µM; IC50 (LCK; [4]): 40.1 µM; inhibition of LCK (in words) (LCK; IC50 in the micromolar range): significantly inhibited
3 | – | CCOC(=O)Cc1csc(NC(=O)CSc2nnc(Nc3ccc(C(F)(F)F)cc3)s2)n1 [Compound 3, Ethyl 2-(2-(2-((5-((4-(trifluoromethyl)phenyl)amino)-1,3,4-thiadiazol-2-yl)thio)acetamido)thiazol-4-yl)acetate] | 129 ± 6 | 14.1 ± 5 | > 300 | > 300 | –
4 | – | O=C(CSc1nnc(Nc2ccc(C(F)(F)F)cc2)s1)Nc1nc2ccccc2s1 [Compound 4, N-(Benzothiazol-2-yl)-2-((5-((4-(trifluoromethyl)phenyl)amino)-1,3,4-thiadiazol-2-yl)thio)acetamide] | > 300 | 32.9 ± 2 | 267 ± 14 | > 300 | –
5 | 309.9 to 310.8 | O=C(CSc1nnc(Nc2ccc(C(F)(F)F)cc2)s1)Nc1nc2ccc(F)cc2s1 [Compound 5, N-(6-Fluorobenzothiazol-2-yl)-2-((5-((4-(trifluoromethyl)phenyl)amino)-1,3,4-thiadiazol-2-yl)thio)acetamide] | 97.9 ± 10 | 17.3 ± 8 | 78.5 ± 12 | > 300 | –
6 | – | O=C(CSc1nnc(Nc2ccc(C(F)(F)F)cc2)s1)Nc1nc2ccc(Cl)cc2s1 [Compound 6, N-(6-Chlorobenzothiazol-2-yl)-2-((5-((4-(trifluoromethyl)phenyl)amino)-1,3,4-thiadiazol-2-yl)thio)acetamide] | 54.4 ± 8 | 28.7 ± 10 | 38.3 ± 2 | > 300 | –
7 | – | Cc1ccc2nc(NC(=O)CSc3nnc(Nc4ccc(C(F)(F)F)cc4)s3)sc2c1 [Compound 7, N-(6-Methylbenzothiazol-2-yl)-2-((5-((4-(trifluoromethyl)phenyl)amino)-1,3,4-thiadiazol-2-yl)thio)acetamide] | > 300 | 30.2 ± 4 | 198 ± 11 | > 300 | –
8 | – | COc1ccc2nc(NC(=O)CSc3nnc(Nc4ccc(C(F)(F)F)cc4)s3)sc2c1 [Compound 8, N-(6-Methoxybenzothiazol-2-yl)-2-((5-((4-(trifluoromethyl)phenyl)amino)-1,3,4-thiadiazol-2-yl)thio)acetamide] | > 300 | 30.9 ± 4 | > 300 | > 300 | –
9 | – | CCOc1ccc2nc(NC(=O)CSc3nnc(Nc4ccc(C(F)(F)F)cc4)s3)sc2c1 [Compound 9, N-(6-Ethoxybenzothiazol-2-yl)-2-((5-((4-(trifluoromethyl)phenyl)amino)-1,3,4-thiadiazol-2-yl)thio)acetamide] | 96.1 ± 7 | 69.4 ± 7 | > 300 | > 300 | activity against the HeLa cell line (in words) [1]: no significant activity
10 | 311.8 to 312.5 | O=C(CSc1nnc(Nc2ccc(C(F)(F)F)cc2)s1)Nc1nc2ccc([N+](=O)[O-])cc2s1 [Compound 10, N-(6-Nitrobenzothiazol-2-yl)-2-((5-((4-(trifluoromethyl)phenyl)amino)-1,3,4-thiadiazol-2-yl)thio)acetamide] | > 300 | 75.3 ± 9 | > 300 | > 300 | activity against the HeLa cell line (in words) [1]: no significant activity
11 | – | Cc1ccc(NC(=O)c2ccc(CN3CCN(C)CC3)cc2)cc1Nc1nccc(-c2cccnc2)n1 [Imatinib, imatinib, reference compound] | – | – | – | – | apoptotic activity (HeLa cells): 78%; apoptotic and necrotic effects (HeLa cells): induced late apoptosis or necrosis
